# Experimental data from patent US20070060632A1, “Lofexidine” (TEXCONTOR ETABLISSEMENT, priority 2005, published 2007).
# “And” between values parts separate entries of the source, which are not always exact repeats. Equal entries are not always repeated. Structures can show the parent of a compound that is named as a salt.
# Key:
# [1] = test system: rat model of post-operative pain; experiment: Rat model of post-operative pain (hind paw incision), tactile allodynia by Electronic Von Frey; format: in vivo; conditions: for Tactile Pressure Post-treatment, Average per rat: average of 4 points of one rat; for % Inhibition: Δ Treatment/Δ Blank × 100% / Δ Treatment: Tactile Pressure [(Post-Treatment) − (Pre-Treatment)]: group; for % Inh per rat: individual rat; for Tactile Pressure Post-Treatment: single points (4 per rat), 24 hours after surgery
# Method: Lofexidine at 0.00032 and 0.0032 mg/rat injected intrathecally (ITH) was evaluated for possible analgesic activity in a rat model of post-operative pain which was induced with an incision made on the plantar surface of the hind paw. To measure tactile allodynia, a supertip with a flattened surface connected to Electrovonfrey Aesthethiometer (IITC, USA) was applied slowly and gently onto the plantar surface of the hind paw, where 4 points around the incision were identified. The endpoint is the mean withdrawal threshold values (gm) in response to von Frey filament, serving as a measure of analgesic activity. Percent inhibition was calculated as Δ treatment values (change in threshold pressure caused by treatment) relative to Δ blank values (change in threshold value caused by incision). Lofexidine.HCl was dissolved in 0.9% NaCl and at doses of 0.00032 and 0.0032 mg/rat was administered intrathecally (ITH). The dosing volume was 10 μl/rat. Male Wistar derived rats weighing 270±30 g provided by BioLasco Taiwan (under Charles River Laboratories Technology licensee) were used. Space allocation for animals was 45×23×15 cm for 6 rats. Animals were housed in APEC^R cages. All animals were maintained in a controlled temperature (22-24° C.) and humidity (60%-80%) environment with 12 hours light dark cycles for at least one week in MDS Pharma Services-Taiwan Laboratory prior to use. Free access to standard lab chow (Lab Diet, Rodent Diet, PMI Nutrition International, USA) and tap water was granted. All aspects of this work including housing, experimentation and disposal of animals were performed in general accordance with the Guide for the Care and Use of Laboratory Animals (National Academy Press, Washington, D. C, 1996). Groups of 5 male Wistar rats weighing 270±30 g were used. Prior to surgery, individual animals were acclimatised to the testing environment and baseline responses to Electronic Von Frey Aesthesiometer (2290CE Electrovonfrey®, IITC, USA) with a rigid tip were performed (Pre-Incision). Under pentobarbital (50 mg/kg, 5 ml/kg, i.p.) anesthesia, the left hind paw was aseptically prepared. A 1-cm longitudinal incision was made with a number 11 blade, through the skin and fascia of the plantar aspect of the foot, starting 0.5 cm from the proximal edge of the heel and extending toward the toes. The plantaris muscle was elevated and incised longitudinally, followed by crushing with a mosquito hemostat for 20 seconds. The muscle origin and insertion remained intact After hemostasis with gentle pressure, the skin and fascia were then closed as one layer using 4-0 silk suture. Evaluation for pain was performed at 24 hours postoperatively between 08:00 and 16:00 h. Each animal was monitored at 15, 30, 60 and 120 minutes after intrathecal administration of lofexidine.HCl. The rats were placed under inverted plexiglas cages on a wire mesh rack and a brief observation of general behavior post-injection was made. The rigid tip part of the Electronic Von Frey Aesthesiometer was applied perpendicularly from underneath the mesh floor to the four points around the wound surface of the animal with slow upward force against the paw. A positive response to tactile pressure was recorded if the paw was sharply withdrawn; ambulation was considered an ambiguous response, and in such cases, the stimulus was reapplied. Mean values from 4 points for each rat and from 5 rats in each group were calculated. Percent inhibition due to treatment relative to pre-treatment pain response was calculated according to the formula: Tactile Pressure [(Post-Treatment)−(Pre-Treatment)]/[(Pre-Incision)−(Pre-Treatment)]×100%. Inhibition by 50% or more (≧50%) is considered significant analgesic effect. Unpaired Student's t test is applied for comparison of the % inhibition values between test substance-and vehicle-treated groups. Significance is considered at P<0.05 level
# [2] = test system: nerve ligation-induced chronic pain model in rats; experiment: Nerve ligation-induced chronic (neuropathic) pain model in rats, mechanical allodynia by Electronic Von Frey; format: in vivo, rat; conditions: for Tactile Pressure Post-Treatment, Average / Tactile Pressure Δ Treatment, Average: average of 5 rats; for Tactile Pressure Post-Treatment / Tactile Pressure Δ Treatment: individual rat
# Method: Lofexidine was evaluated for possible analgesic activity in neuropathic pain using a nerve ligation-induced chronic pain model in rats. Lofexidine HCl was administered intrathecally (ITH) at 3.2 and 10 μg/animal and analgesia was measured at 15, 30, 60 and 120 minutes post-dosing using an Electronic Von Frey Aesthesiometer (IITC, USA) with a #12 supertip. A 50% or greater (≧50%) inhibition relative to blank indicates possible analgesic activity. Lofexidine HCl at doses of 3.2 and 10 μg/animal were administered intrathecally. Sterile Saline (obtained from Sintong Biotech Company, Taiwan) was used as vehicle and dosing volume was 10 μl/animal. Male Wistar rats weighing 160 to 200 g were used. Under pentobarbital (50 mg/kg, 5 ml/kg, i.p.) anesthesia, the sciatic nerve was exposed at mid-thigh level. Three ligatures (4-0 silk suture), about 1 mm apart, were loosely tied around the nerve. The animals were then housed individually in cages with soft bedding for 7 days before testing for mechanical allodynia. On the test day, rats were placed under inverted plexiglas cages on a wire mesh rack and allowed to acclimatise for 20 to 30 minutes. Allodynia was evaluated by responsiveness to a #12 Supertip® (IITC, USA) applied beneath the mesh floor perpendicular to the central plantar surface of the left hind paw. The tip was gradually applied with sufficient force to cause slight buckling of the filament against the paw. A positive response to the applied tactile pressure, noted by sharp withdrawal of the paw, was recorded automatically by an Electronic Von Frey Aesthesiometer (2290CE Electrovonfrey®, IITC, USA). The endpoint is the withdrawal threshold (gm) to von Frey filament, serving as a measure of analgesic activity. Rats were pre-selected (for presence of allodynia) for experimentation only if the withdrawal threshold 7 days after nerve ligation (pre-treatment) was reduced by 10 grams of force relative to the response of the individual paw before nerve ligation (pre-ligation). Test substance or vehicle was administered intrathecally (3.2 μg and 10 μg/animal) to groups of 5 animals and the level of allodynia was again determined (at 15, 30, 60 and 120 minutes post-treatment). Allodynia is calculated as follows: % Inhibition=ΔTreatment/ΔBlank×100%; where Δ Treatment is Tactile Pressure [(Post-Treatment)−(Pre-Treatment)] and Δ Blank is Tactile Pressure [(Pre-Ligation)−(Pre-Treatment)]. A 50 percent or greater (≧50%) inhibition relative to blank indicates possible analgesic activity.
# [3] = systemically (orally or by intravenous injection), especially at high doses (>600 μg per day); cited from earlier work
# [4] = test system: chronic pelvic pain; conditions: given orally, dosages of up to 1200 μg per day; cited from earlier work
compound,measurement,setting,value
CC(Oc1c(Cl)cccc1Cl)C1=NCCN1 (centres unmarked) [Lofexidine],analgesic effect against post-operative pain,[1]; 0.00032 mg/rat ITH,slight analgesic effect
same,analgesic effect against post-operative pain,"[1]; 0.0032 mg/rat intrathecal, 15 and 30 minute time points, compared with Δ blank values",demonstrated analgesic effect
same,"analgesic activity, neuropathic pain",[2]; 3.2 μg/animal intrathecal,low levels of analgesic activity
same,"analgesic activity, neuropathic pain","[2]; 10 μg/animal intrathecal, 30 minutes post-injection",significant analgesic activity
CC(Oc1c(Cl)cccc1Cl)C1=NCCN1 (centres unmarked) [Lofexidine HCl],"Tactile Pressure Post-treatment, Average per rat","[1]; 0.00032 mg/rat ITH, 15 min.",18.0 g
same,% Inhibition: Δ Treatment/Δ Blank × 100%,"[1]; 0.00032 mg/rat ITH, 15 min.",2.6%
same,Δ Treatment: Tactile Pressure [(Post-Treatment) − (Pre-Treatment)],"[1]; 0.00032 mg/rat ITH, 15 min.",0.8 g
same,% Inh per rat,"[1]; 0.00032 mg/rat ITH, 15 min.",−7.4% and 2.5% and −5.6% and 8.0%
same,% Inhibition: Δ Treatment/Δ Blank × 100%,"[1]; 0.00032 mg/rat ITH, 30 min.",7.6%
same,Δ Treatment: Tactile Pressure [(Post-Treatment) − (Pre-Treatment)],"[1]; 0.00032 mg/rat ITH, 30 min.",2.3 g
same,% Inh per rat,"[1]; 0.00032 mg/rat ITH, 30 min.",−3.2% and 4.1%
same,Tactile Pressure Post-Treatment,"[1]; 0.00032 mg/rat ITH, 30 min.",26.0 g and 20.0 g
same,"Tactile Pressure Post-treatment, Average per rat","[1]; 0.00032 mg/rat ITH, 60 min.",22.0 g
same,% Inhibition: Δ Treatment/Δ Blank × 100%,"[1]; 0.00032 mg/rat ITH, 60 min.",4.3%
same,Δ Treatment: Tactile Pressure [(Post-Treatment) − (Pre-Treatment)],"[1]; 0.00032 mg/rat ITH, 60 min.",1.3 g
same,% Inh per rat,"[1]; 0.00032 mg/rat ITH, 60 min.",−0.7% and 3.0% and 0.8% and 7.4%
same,Tactile Pressure Post-Treatment,"[1]; 0.00032 mg/rat ITH, 60 min.",22.0 g
same,% Inhibition: Δ Treatment/Δ Blank × 100%,"[1]; 0.00032 mg/rat ITH, 120 min.",0.3%
same,Δ Treatment: Tactile Pressure [(Post-Treatment) − (Pre-Treatment)],"[1]; 0.00032 mg/rat ITH, 120 min.",0.1 g
same,% Inh per rat,"[1]; 0.00032 mg/rat ITH, 120 min.",−2.5% and −7.4% and 2.5% and 4.1% and 4.7%
same,Tactile Pressure Post-Treatment,"[1]; 0.00032 mg/rat ITH, 120 min.",21.0 g (2×) and 22.0 g and 18.0 g
same,"Tactile Pressure Post-treatment, Average per rat","[1]; 0.0032 mg/rat ITH, 15 min.",46.0 g
same,Tactile Pressure Post-Treatment,"[1]; 0.0032 mg/rat ITH, 15 min.",43.0 g and 60.0 g
same,% Inh per rat,"[1]; 0.0032 mg/rat ITH, 30 min.",47.0%
same,Tactile Pressure Post-Treatment,"[1]; 0.0032 mg/rat ITH, 30 min.",44.0 g
same,Δ Treatment: Tactile Pressure [(Post-Treatment) − (Pre-Treatment)],"[1]; 0.0032 mg/rat ITH, 60 min.",8.9 g
same,% Inh per rat,"[1]; 0.0032 mg/rat ITH, 60 min.",−3.5% and 0.9%
same,Tactile Pressure Post-Treatment,"[1]; 0.0032 mg/rat ITH, 60 min.",29.0 g
same,"Tactile Pressure Post-treatment, Average per rat","[1]; 0.0032 mg/rat ITH, 120 min.",22.0 g
same,% Inhibition: Δ Treatment/Δ Blank × 100%,"[1]; 0.0032 mg/rat ITH, 120 min.",5.5%
same,Δ Treatment: Tactile Pressure [(Post-Treatment) − (Pre-Treatment)],"[1]; 0.0032 mg/rat ITH, 120 min.",1.8 g
same,% Inh per rat,"[1]; 0.0032 mg/rat ITH, 120 min.",1.2% and 5.8% and −2.5% and −8.2%
same,common symptoms associated with systemic use,[3],"drowsiness, sedation and blood pressure and heart rate increases"
same,effectiveness in treatment of chronic pelvic pain,[4],not effective
same,"Tactile Pressure Post-Treatment, Average","[2]; 3.2 μg/animal ITH, 15 Minutes",12.5 g
same,"Tactile Pressure Δ Treatment, Average","[2]; 3.2 μg/animal ITH, 15 Minutes",1.3 g
same,Tactile Pressure Post-Treatment,"[2]; 3.2 μg/animal ITH, 15 Minutes",8.9 g and 5.8 g
same,Tactile Pressure Δ Treatment,"[2]; 3.2 μg/animal ITH, 15 Minutes",-1.8 g and -5.2 g and 8.5 g and 6.3 g and -1.1 g
same,"Tactile Pressure Δ Treatment, Average","[2]; 3.2 μg/animal ITH, 30 Minutes",-1.1 g
same,Tactile Pressure Post-Treatment,"[2]; 3.2 μg/animal ITH, 30 Minutes",7.4 g and 8.5 g and 10.0 g
same,Tactile Pressure Δ Treatment,"[2]; 3.2 μg/animal ITH, 30 Minutes",-0.5 g and -3.8 g and -0.6 g and 1.4 g and -2.0 g
same,"Tactile Pressure Post-Treatment, Average","[2]; 3.2 μg/animal ITH, 60 Minutes",9.3 g
same,"Tactile Pressure Δ Treatment, Average","[2]; 3.2 μg/animal ITH, 60 Minutes",-1.8 g
same,Tactile Pressure Post-Treatment,"[2]; 3.2 μg/animal ITH, 60 Minutes",8.7 g and 7.5 g and 6.5 g
same,Tactile Pressure Δ Treatment,"[2]; 3.2 μg/animal ITH, 60 Minutes",-2.0 g and -3.7 g and -2.1 g and 4.2 g and -5.5 g
same,"Tactile Pressure Post-Treatment, Average","[2]; 3.2 μg/animal ITH, 120 Minutes",9.2 g
same,"Tactile Pressure Δ Treatment, Average","[2]; 3.2 μg/animal ITH, 120 Minutes",-2.0 g
same,Tactile Pressure Post-Treatment,"[2]; 3.2 μg/animal ITH, 120 Minutes",8.6 g and 6.1 g and 7.9 g
same,Tactile Pressure Δ Treatment,"[2]; 3.2 μg/animal ITH, 120 Minutes",-2.1 g and -5.1 g and -2.4 g and 0.8 g and -1.2 g
same,"Tactile Pressure Δ Treatment, Average","[2]; 10 μg/animal ITH, 15 Minutes",13.0 g
same,Tactile Pressure Post-Treatment,"[2]; 10 μg/animal ITH, 15 Minutes",>36.8 g
same,Tactile Pressure Δ Treatment,"[2]; 10 μg/animal ITH, 15 Minutes",1.5 g and 11.0 g
same,Tactile Pressure Post-Treatment,"[2]; 10 μg/animal ITH, 30 Minutes",7.0 g and >31.5 g and >35.5 g
same,Tactile Pressure Δ Treatment,"[2]; 10 μg/animal ITH, 30 Minutes",-3.9 g and 4.3 g
same,Tactile Pressure Post-Treatment,"[2]; 10 μg/animal ITH, 60 Minutes",8.9 g
same,Tactile Pressure Δ Treatment,"[2]; 10 μg/animal ITH, 60 Minutes",8.4 g and 4.2 g and -2.4 g
same,"Tactile Pressure Post-Treatment, Average","[2]; 10 μg/animal ITH, 120 Minutes",11.0 g
same,"Tactile Pressure Δ Treatment, Average","[2]; 10 μg/animal ITH, 120 Minutes",0.6 g
same,Tactile Pressure Post-Treatment,"[2]; 10 μg/animal ITH, 120 Minutes",6.4 g
same,Tactile Pressure Δ Treatment,"[2]; 10 μg/animal ITH, 120 Minutes",1.4 g and -0.1 g and 5.2 g and 1.3 g and -4.9 g
same,time of peak analgesic activity post-dosing,[2]; 10 μg/animal intrathecal,30 min
same,analgesic activity at 120 minutes post-dosing,"[2]; 10 μg/animal intrathecal, 120 minutes post-dosing",no longer evident
